Test [1] addresses T1, BACE1 (Homo sapiens, UniProt P56817). As to the kind of experiment: Cellular Abeta-lowering assay. Format: cell-based. Also on record: endogenous in cells; host or cells: HEK293 stably transfected with human APP695 wt. The settings on record: HEK293 cells stably transfected with human APP wt (APP695), Aβ40 ELISA of supernatant after 18-20 hrs.
Test [2] concerns the target T2, BACE2 (Rattus norvegicus, UniProt Q6IE75).
T2 construct: endogenous cellular BACE2 in the Ins1e rat cell line; endogenous in cells; host or cells: INS-TMEM27 (INS1e-derived rat cell line with doxycycline-inducible full-length hTMEM27)
T2 sequence (Q6IE75 63-514): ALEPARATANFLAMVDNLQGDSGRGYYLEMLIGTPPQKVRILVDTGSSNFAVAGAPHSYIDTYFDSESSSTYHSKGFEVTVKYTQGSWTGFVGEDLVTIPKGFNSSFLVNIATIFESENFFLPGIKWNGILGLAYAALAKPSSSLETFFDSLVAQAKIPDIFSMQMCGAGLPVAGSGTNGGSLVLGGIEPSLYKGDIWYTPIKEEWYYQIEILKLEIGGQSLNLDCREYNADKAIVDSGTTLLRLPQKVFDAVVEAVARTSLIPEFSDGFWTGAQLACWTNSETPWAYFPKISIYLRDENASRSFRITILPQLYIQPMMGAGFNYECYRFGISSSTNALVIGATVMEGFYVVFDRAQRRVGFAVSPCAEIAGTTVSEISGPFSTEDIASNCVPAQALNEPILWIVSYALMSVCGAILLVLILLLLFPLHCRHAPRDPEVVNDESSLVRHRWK
As to the kind of experiment: Assay for BACE inhibition by measuring cellular TMEM27 cleavage.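 Also: inhibitor added 2 h before doxycycline-induced hTMEM27 expression, supernatant collected after further 46 h, endogenous BACE2 activity read as reduced TMEM27 shedding.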 Format: cell-based. The settings on record: INS-TMEM27 (INS1e-derived) cells, ELISA of shed human TMEM27 in supernatant.

Test [3] deals with T3, BACE2 (Homo sapiens, UniProt Q9Y5Z0).
T3 construct: BACE2 enzyme ectodomain (derived from plasmid “pET17b-T7-hu proBACE2”); T7 (N); made in house
T3 sequence (Q9Y5Z0 63-473 limits assumed): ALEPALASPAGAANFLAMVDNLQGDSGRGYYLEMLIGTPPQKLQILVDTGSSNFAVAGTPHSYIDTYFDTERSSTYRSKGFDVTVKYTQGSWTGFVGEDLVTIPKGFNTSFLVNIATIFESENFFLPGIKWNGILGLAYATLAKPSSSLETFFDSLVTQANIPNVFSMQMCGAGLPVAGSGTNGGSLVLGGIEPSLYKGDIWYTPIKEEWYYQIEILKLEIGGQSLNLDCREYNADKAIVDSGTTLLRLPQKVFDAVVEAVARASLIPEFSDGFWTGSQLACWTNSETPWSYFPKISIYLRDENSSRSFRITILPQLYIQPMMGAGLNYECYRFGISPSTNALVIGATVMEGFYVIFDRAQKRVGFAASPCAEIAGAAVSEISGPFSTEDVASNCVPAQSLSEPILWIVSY
Put plainly: Assay A: binding studies using SPR based methods, immobilised BACE2. The settings on record: CM5 chip, immobilised BACE2 enzyme ectodomain, acetate buffer pH 4.6, 4% DMSO.

Test [4] addresses T1, BACE1. Put plainly: Assay A: binding studies using SPR based methods, immobilised BACE1.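 Also: KD from a 1:1 kinetic fit (koff/kon) of real-time association and dissociation curves, or for fast binders from end-of-association equilibrium responses plotted against log concentration.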 The note with it: CM5 chip, immobilised 6his-tagged full length BACE 1, acetate buffer pH 4.6, 4% DMSO. Also on record: 6his-tagged full length BACE 1 expressed in SF9 cells; 6His; made in house; host or cells: SF9 insect cells.

The structures appear in SMILES notation.

Here are results for 18 compounds from US20130196984A1, “3-AMINO-5-PHENYL-56-DIHYDRO-2H-[1,4]OXAZINES” (Siena Biotech S.p.A., priority 2009, published 2013).

T1 sequence (P56817 46-501): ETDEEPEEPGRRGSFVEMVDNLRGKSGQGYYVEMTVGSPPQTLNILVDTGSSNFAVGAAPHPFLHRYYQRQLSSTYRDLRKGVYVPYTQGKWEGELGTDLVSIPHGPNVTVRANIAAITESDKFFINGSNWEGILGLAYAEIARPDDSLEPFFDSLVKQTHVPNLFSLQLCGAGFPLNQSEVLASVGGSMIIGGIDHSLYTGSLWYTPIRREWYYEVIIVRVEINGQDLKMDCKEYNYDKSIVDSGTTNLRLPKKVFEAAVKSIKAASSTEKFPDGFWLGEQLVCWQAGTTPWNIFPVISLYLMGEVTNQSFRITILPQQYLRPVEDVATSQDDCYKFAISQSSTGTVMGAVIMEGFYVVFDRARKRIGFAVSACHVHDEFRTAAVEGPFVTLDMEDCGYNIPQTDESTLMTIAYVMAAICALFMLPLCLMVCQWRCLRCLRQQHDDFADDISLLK

`CC1(c2cccc(NC(=O)c3ccc(Cl)cc3Cl)c2)COCC(N)=N1` (racemic) [Example 4, (RS)—N-[3-(5-amino-3-methyl-3,6-dihydro-2H-[1,4]oxazin-3-yl)-phenyl]-2,4-dichloro-benzamide]: the half-maximal inhibitory concentration (IC50) at BACE1 [1] was 570 nM; on BACE2 [2] it was 950 nM. Further, the Kd at BACE2 [3] came to 381 nM; on BACE1 [4], 1720 nM.
Taken in the same sequence, the figures for `CC1(c2cccc(NC(=O)c3cccc(Cl)c3)c2)COCC(N)=N1` (racemic) [Example 6, (RS)—N-[3-(5-amino-3-methyl-3,6-dihydro-2H-[1,4]oxazin-3-yl)-phenyl]-3-chloro-benzamide] were 1530 nM, 660 nM, 230 nM and 6900 nM.
For `CC1(c2cccc(NC(=O)c3ccc(Cl)s3)c2)COCC(N)=N1` (racemic) [Example 8, (RS)-5-chloro-thiophene-2-carboxylic acid [3-(5-amino-3-methyl-3,6-dihydro-2H-[1,4]oxazin-3-yl)-phenyl]-amide], in that order: 327 nM, 360 nM, 106 nM and 1490 nM.
For `Cc1cc(C(=O)Nc2cccc(C3(C)COCC(N)=N3)c2)c(C)s1` (racemic) [Example 9, (RS)-2,5-dimethyl-thiophene-3-carboxylic acid [3-(5-amino-3-methyl-3,6-dihydro-2H-[1,4]oxazin-3-yl)-phenyl]-amide], in that order: 58 nM, 43 nM, 63 nM and 717 nM.
As for `Cc1cc(C(=O)Nc2cccc(C3(C)COCC(N)=N3)c2)c(C)o1` (racemic) [Example 13, (RS)-2,5-dimethylfuran-3-carboxylic acid [3-(5-amino-3-methyl-3,6-dihydro-2H-[1,4]oxazin-3-yl)-phenyl]-amide], the 50% inhibitory concentration (IC50) at BACE1 [1] was determined as 24 nM; on BACE2 [2] it was 51 nM. Moreover, the figures for the Kd on BACE2 [3] and on BACE1 [4] were 33 nM and 445 nM, respectively.
With `CC1(c2cc(NC(=O)c3ccc(Cl)cc3)ccc2F)COCC(N)=N1` (racemic) [Example 19, (RS)—N-[3-(5-amino-3-methyl-3,6-dihydro-2H-[1,4]oxazin-3-yl)-4-fluoro-phenyl]-4-chloro-benzamide], the values for the half-maximal inhibitory concentration (IC50) on BACE1 [1] and against BACE2 [2] were 130 nM and 837 nM, respectively. For the same compound, the Kd on BACE2 [3] was found to be 98 nM; on BACE1 [4] it was 394 nM.
For `NC1=NC(c2cc(NC(=O)c3ccc(Cl)cn3)ccc2F)(C2CC2)COC1` (racemic) [Example 22, (RS)-5-Chloro-pyridine-2-carboxylic acid [3-(5-amino-3-cyclopropyl-3,6-dihydro-2H-[1,4]oxazin-3-yl)-4-fluoro-phenyl]-amide], in that order: 11 nM, 11 nM, 19 nM and 140 nM.
Consider `C[C@@]1(c2cc(NC(=O)c3ccc(Cl)cn3)ccc2F)CO[C@@H](Cc2ccccc2)C(N)=N1` (racemic) [Example 29, 5-Chloro-pyridine-2-carboxylic acid [3-((3R,6S)— and (3S,6R)-5-amino-6-benzyl-3-methyl-3,6-dihydro-2H-[1,4]oxazin-3-yl)-4-fluoro-phenyl]-amide], for which the figures for the IC50 at BACE1 [1] and at BACE2 [2] were 50 nM and 140 nM, respectively. Also, the Kd at BACE2 [3] stood at 6 nM; on BACE1 [4] it was 58 nM.
As for `CC1(c2cc(NC(=O)c3cc(-c4ccco4)on3)ccc2F)COCC(N)=N1` (racemic) [Example 75, 5-Furan-2-yl-isoxazole-3-carboxylic acid [3-((RS)-5-amino-3-methyl-3,6-dihydro-2H-[1,4]oxazin-3-yl)-4-fluoro-phenyl]-amide], the IC50 is 110 nM on BACE1 [1] and above 10000 nM at BACE2 [2]. Further, the values for the equilibrium dissociation constant (Kd) on BACE2 [3] and at BACE1 [4] were 2150 nM and 261 nM, respectively.
For `C[C@@]1(c2cc(NC(=O)c3ccc(Cl)cn3)ccc2F)CO[C@H](Cc2ccccc2)C(N)=N1` [Example 28, 5-Chloro-pyridine-2-carboxylic acid [3-((3R,6R)— and (3S,6)-5-amino-6-benzyl-3-methyl-3,6-dihydro-2H-[1,4]oxazin-3-yl)-4-fluoro-phenyl]-amide], in that order: 19 nM, 58 nM, 11 nM and 71 nM.
For `C[C@@]1(c2cc(NC(=O)c3ncc(Cl)cn3)ccc2F)COCC(N)=N1` [Example 35, 5-chloro-pyrimidine-2-carboxylic acid [3-((R)-5-amino-3-methyl-3,6-dihydro-2H-[1,4]oxazin-3-yl)-4-fluoro-phenyl]-amide], in that order: 15 nM, 16 nM, 4 nM and 28 nM.
Turning to `C[C@@]1(c2cc(NC(=O)c3coc(C(F)(F)F)c3)ccc2F)COCC(N)=N1` [Example 36, 5-trifluoromethyl-furan-3-carboxylic acid [3-((R)-5-amino-3-methyl-3,6-dihydro-2H-[1,4]oxazin-3-yl)-4-fluoro-phenyl]-amide], the concentration for half-maximal inhibition (IC50) amounted to 550 nM against BACE1 [1] and 120 nM on BACE2 [2]. Further, the Kd on BACE2 [3] was found to be 955 nM; on BACE1 [4], 2260 nM.
As for `C[C@@]1(c2cc(NC(=O)c3ncccc3F)ccc2F)COCC(N)=N1` [Example 37, 3-fluoro-pyridine-2-carboxylic acid [3-((R)-5-amino-3-methyl-3,6-dihydro-2H-[1,4]oxazin-3-yl)-4-fluoro-phenyl]-amide], the IC50 against BACE1 [1] is 240 nM; on BACE2 [2], 17 nM. Besides, the figures for the equilibrium dissociation constant (Kd) at BACE2 [3] and on BACE1 [4] were 20 nM and 283 nM, respectively.
`C[C@@]1(c2cc(NC(=O)c3ncc(C(F)(F)F)cc3Cl)ccc2F)COCC(N)=N1` [Example 38, 3-chloro-5-trifluoromethyl-pyridine-2-carboxylic acid [3-((R)-5-amino-3-methyl-3,6-dihydro-2H-[1,4]oxazin-3-yl)-4-fluoro-phenyl]-amide]: the concentration for half-maximal inhibition (IC50) was found to be 21 nM at BACE1 [1] and 44 nM against BACE2 [2]. Moreover, the Kd on BACE2 [3] was determined as 32 nM; on BACE1 [4] it was 39 nM.
Taken in the same sequence, the figures for `Cc1nc(C(=O)Nc2ccc(F)c([C@]3(C)COCC(N)=N3)c2)co1` [Example 39, 2-methyl-oxazole-4-carboxylic acid [3-((R)-5-amino-3-methyl-3,6-dihydro-2H-[1,4]oxazin-3-yl)-4-fluoro-phenyl]-amide] were 28 nM, 130 nM, 8 nM and 45 nM.
For `C[C@@]1(c2cc(NC(=O)c3ccn(C(F)F)n3)ccc2F)COCC(N)=N1` [Example 40, 1-difluoromethyl-1H-pyrazole-3-carboxylic acid [3-((R)-5-amino-3-methyl-3,6-dihydro-2H-[1,4]oxazin-3-yl)-4-fluoro-phenyl]-amide], in that order: 13 nM, 2 nM, 2 nM and 15 nM.
For `C[C@@]1(c2cc(NC(=O)c3ncc(F)cc3F)ccc2F)COCC(N)=N1` [Example 41, 3,5-difluoro-pyridine-2-carboxylic acid [3-((R)-5-amino-3-methyl-3,6-dihydro-2H-[1,4]oxazin-3-yl)-4-fluoro-phenyl]-amide], the IC50 against BACE1 [1] stood at 26 nM; on BACE2 [2], 4 nM. The Kd on BACE2 [3] is 6 nM; on BACE1 [4], 54 nM.
Consider `Cn1cc(Cl)c(C(=O)Nc2ccc(F)c([C@]3(C)COCC(N)=N3)c2)n1` [Example 43, 4-chloro-1-methyl-1H-pyrazole-3-carboxylic acid [3-((R)-5-amino-3-methyl-3,6-dihydro-2H-[1,4]oxazin-3-yl)-4-fluoro-phenyl]-amide], for which the IC50 on BACE1 [1] was determined as 79 nM; at BACE2 [2], 13 nM. Further, the values for the dissociation constant (Kd) at BACE2 [3] and at BACE1 [4] were 5 nM and 85 nM, respectively.
